Data published in patent publication US20210368825A1, “FEED ADDITIVE FOR DAIRY CATTLE COMPRISING N-ACETYL-L-TRYPTOPHAN AS ACTIVE INGREDIENT” (CJ CHEILJEDANG CORPORATION, priority 2018, published 2021).
Values joined by “and” are separate entries in the source; they are usually repeats but may differ in a detail not shown here. Identical values can stand only once. “Also recorded” adds a separate entry of the source.

Columns and labels:
[1] = system: dry cows in the late stage of gestation; assay: Analysis of feed intake of dairy cattle according to NALT feeding; type: in vivo, Holstein Friesian cows; conditions: for feed intake: basal diet supplemented with NALT (15 g/d)
Text: (§1) From among Holstein Friesian cows in the late stage of gestation corresponding to 60 days before calving, 8 cows were selected in consideration of calving time (expected calving date±15 days), the number of calving (calving number), and the like, and 4 cows were assigned to each of a control (untreated) and a treated group.
(§2) In the present disclosure, as a basal diet fed during a dry period and a milking period, total mixed ration (TMR), roughage, and concentrates were provided in accordance with NRC (2001) nutrition requirements for dry cows. In the case of the treated group, evaluation was performed by supplementing N-acetyl-L-tryptophan (NALT) to the basal diet. Newborn calves were fed with colostrum for 3 days and then fed with milk obtained during a milking process for 8 weeks.
(§3) Evaluation of feed feeding before calving by feeding N-acetyl-L-tryptophan was performed for 60±8 days (error caused by difference in expected calving dates). The control was fed with the basal diet, and the treated group was fed with the basal diet supplemented with 15 g of NALT.
An amount of the feed left over was recorded for each cow at 9 a.m. every morning to measure a daily feed intake.

[2] = system: calves born from dairy cattle; assay: Analysis of weight of calf born from dairy cattle according to NALT feeding; type: in vivo, Holstein Friesian cows (calves); conditions: for weight of calf: mother fed NALT 15 g/d in dry period
Text: as §1, §2, §3
Weights of calves born from dairy cattle used for the experiment were measured after drying the body surface immediately after calving (before feeding colostrum; using a scale, GL-6000S Series, G-Tech International Co., LTD), and then weights were measured four times in total for 8 weeks at an interval of 2 weeks (weight before feeding milk). Colostrum was obtained from mother cows and fed to calves at 3 a.m. and 3 p.m. until 3 days after calving. Then, 3.8 L of milk was provided per day, and the concentrates were available without limitation from a feed bucket separately for individual animals.

[3] = system: milking cows after calving; assay: Analysis of milk quality of dairy cattle after calving according to NALT feeding (milk scanner FT1); type: in vivo, Holstein Friesian cows; set-up: Aceton / Aceton, total AVG / BHB / BHB, total AVG / Cas.B / Cas.B, total AVG / Mono FA / Mono FA, total AVG / Saturated FA / Saturated FA, total AVG / Total FA / Total FA, total AVG: unit not given here
Text: as §1, §2, §3
Raw milk was pooled at 3 a.m. and 3 p.m. every 14 days after calving when lactation was initiated, and chemical compositions contained in milk, i.e., milk fat, milk protein, lactose, solid-not-fat (SNF), somatic cells, milk urea nitrogen (MUN), acetone, beta-hydroxybutyrate (BHB), casein-beta, mono- and poly-unsaturated fatty acids, saturated fatty acids, and total fatty acid, were analyzed using a milk scanner FT1 (Foss Alle 1 DK-3400 Hilleroed, Denmark).
In addition, in order to identify changes in milk protein yield and milk fat yield, changes were identified on a weekly basis.

[4] = system: dairy cattle in dry period; assay: Change in hematological properties of dairy cattle in dry period according to NALT feeding; type: in vivo, Holstein Friesian cows
Text: as §1, §2, §3
Blood was collected from dairy cattle and calves during 6 weeks of the dry period and immediately after calving via the jugular vein before feeding a morning feed every 2 weeks for 8 weeks. The collected blood was aliquoted into a serum tube (BD Vacutainer, Plymouth, UK) and a heparin tube (Becton-Dickinson, Belliver Industrial Estate, Plymouth, PL6 7BP, UK) and centrifuged (3,500 rpm, 15 min, 20° C.) to separate plasma.
Blood samples for analysis of changes in hematological properties such as white blood cells (WBC), lymphocytes, monocytes, granulocytes, mean corpuscular volume, mean corpuscular hemoglobin, and platelets were aliquoted into an ethylenediaminetetraacetic acid (EDTA)-treated vacutainer (Becton-Dickinson, Franklin Lakes, N.J., USA) and analyzed using a VetScan HM2 Hematology System (ABAXIS, Calif., USA).

[5] = average over 8 weeks after calving
[6] = milk, average over 8 weeks after calving

## CC(=O)N[C@@H](Cc1c[nH]c2ccccc12)C(=O)O [NALT, N-acetyl-L-tryptophan]
[1]; 6 weeks of dry period
  overall feed intake compared with control: numerical increase; also recorded: numerically increased
[1]; week 0 of dry period
  feed intake: 6.63 kg
[1]; week 1 of dry period
  feed intake: 6.85 kg
[1]; week 2, p<0.05
  feed intake compared with control: statistically significant increase
[1]; week 2 of dry period
  feed intake: 7.73 kg
[1]; week 3 of dry period
  feed intake: 7.62 kg
[1]; week 4, control 6.46 kg
  increase in feed intake compared with control: 1.43 kg
[1]; week 4 of dry period
  feed intake: 7.69 kg
[1]; week 5 of dry period
  feed intake: 7.63 kg
[2]; 0 to 8 wk
  weight of calf, Increment: 28.28 kg
[2]; 0 wk (birth weight)
  weight of calf: 41.43 kg
[2]; 2 wk after birth
  weight of calf: 46.05 kg
[2]; 4 wk after birth
  weight of calf: 52.75 kg
[2]; 6 wk after birth
  weight of calf: 60.95 kg
[2]; 8 wk after birth
  weight of calf: 69.70 kg
[2]; average 0 to 8 wk
  weight of calf, total AVG: 54.18 kg
[2]; week 0, on average
  birth weight of calves greater than control: 5.47 kg and 5.53 kg
[2]; week 2
  average weight of calves greater than control: 5.1 kg
[2]; week 4
  average weight of calves greater than control: 4.67 kg
[2]; week 6
  average weight of calves greater than control: 4.22 kg
[2]; week 8
  average weight of calves greater than control: 5.9 kg
[2]; weeks 2, 4, 6 and 8 overall
  average weight of calves greater than control: about 5 kg
[3]; 0 wk
  Lactose: 3.48%
  Milk fat: 6.25%
  Milk protein: 12.81%
  Milk urea nitrogen: 24.43 mg/dL
  Solid-not Fat: 17.17%
  Somatic cells: 4867.95 ×10^3
[3]; [5]
  Lactose, total AVG: 4.38%
  Milk fat, total AVG: 6.31%
  Milk protein, total AVG: 4.88%
  Milk urea nitrogen, total AVG: 16.49 mg/dL
  Solid-not Fat, total AVG: 9.95%
  Somatic cells, total AVG: 1086.15 ×10^3
[3]; immediately after calving
  milk fat yield of colostrum compared with control: lower
  milk protein yield of colostrum compared with control: higher
[3]; milk beta-hydroxybutyrate, 0 wk
  BHB: 0.00
[3]; milk beta-hydroxybutyrate, average over 8 weeks after calving
  BHB, total AVG: 0.04
[3]; milk casein-beta, 0 wk
  Cas.B: 9.76
[3]; milk casein-beta, average over 8 weeks after calving
  Cas.B, total AVG: 3.71
[3]; milk mono-unsaturated fatty acids, 0 wk
  Mono FA: 1.35
[3]; milk mono-unsaturated fatty acids, average over 8 weeks after calving
  Mono FA, total AVG: 1.70
[3]; milk poly-unsaturated fatty acids, 0 wk
  Poly FA: 0.34
[3]; milk poly-unsaturated fatty acids, average over 8 weeks after calving
  Poly FA, total AVG: 0.36
[3]; milk, 0 wk
  Aceton: 0.00
  Saturated FA: 4.95
  Total FA: 1.38
[3]; [6]
  Aceton, total AVG: 0.07
  Saturated FA, total AVG: 4.20
  Total FA, total AVG: 2.16
[3]; weekly basis after calving, control showed a tendency to decrease
  milk fat yield as the experiment progressed: tendency to be maintained constantly
[4]; dry period, 0 wk, reference 0-0.84
  Monocyte: 0.48 K/uL
[4]; dry period, 0 wk, reference 0.6-6.7
  Granulocyte: 3.89 K/uL
[4]; dry period, 0 wk, reference 2.5-7.5
  Lymphocyte: 7.68 K/uL
[4]; dry period, 0 wk, reference 4-12
  WBC: 10.45 K/uL
[4]; dry period, 0 wk, reference 11-17
  MCH: 16.01 pg
[4]; dry period, 0 wk, reference 40-60
  MCV: 46.75 fL
[4]; dry period, 0 wk, reference 100-800
  Platelet: 297.67 K/ul
[4]; dry period, average 0 to 6 weeks, reference 0-0.84
  Monocyte, total AVG: 0.74 K/uL
[4]; dry period, average 0 to 6 weeks, reference 0.6-6.7
  Granulocyte, total AVG: 3.29 K/uL
[4]; dry period, average 0 to 6 weeks, reference 2.5-7.5
  Lymphocyte, total AVG: 7.88 K/uL
[4]; dry period, average 0 to 6 weeks, reference 4-12
  WBC, total AVG: 11.91 K/uL
[4]; dry period, average 0 to 6 weeks, reference 11-17
  MCH, total AVG: 16.74 pg
[4]; dry period, average 0 to 6 weeks, reference 40-60
  MCV, total AVG: 47.54 fL
[4]; dry period, average 0 to 6 weeks, reference 100-800
  Platelet, total AVG: 331.35 K/ul
[4]; during the dry period
  effect on hematological properties of dairy cattle compared with control: did not significantly affect
